Values of other authors, collected in US20140155265A1, “HERBICIDAL COMPOSITIN COMPRISING PINOXADEN AND FLUROXYPYR AND METHODS OF USE THEREOF” (priority 2011, published 2014).

Conditions: Pesticide Manual 15th edition

**Q.** With `Nc1c(Cl)c(F)nc(OCC(=O)O)c1Cl` [Fluoroxypyr (free carboxylic acid), Fluoroxypyr] as the compound, how does the pKa read?
**A.** 2.94
